Calls of active or inactive are those of the source. The calls are words filed in the database; no cut-off is given here.
Columns and labels:
[1] = Cytotoxicity against human IMR90 cells up to 1 uM; format: cell-based; conditions: imr-90
[2] = Fold resistance, ratio of IC50 for antiproliferative activity for P-gp overexpressing human MES-SA/Dx5-Rx1cells to IC50 for antiproliferative activity for human MES-SA cells
[3] = tested on: LOX; test: Antitumor activity against human LOX cells xenografted in athymic mouse assessed as inhibition of tumor growth at 0.1 mg/kg, iv qd administered 5 days a week for 2 weeks measured up to 2 weeks; format: functional, organism-based; parameters: dose 0.1 mg/kg
[4] = tested on: HCT-15; test: Antiproliferative activity against human HCT15 cells assessed as growth inhibition; format: functional, cell-based
[5] = Antiproliferative activity against P-gp overexpressing human MES-SA/Dx5-Rx1 cells assessed as growth inhibition; format: functional
[6] = tested on: LOX; test: Antitumor activity against human LOX cells xenografted in athymic mouse assessed as inhibition of tumor growth at 0.1 mg/kg, iv qd administered 5 days a week for 2 weeks measured after 2 weeks; format: functional, organism-based; parameters: dose 0.1 mg/kg
[7] = tested on: Mus musculus; test: Toxicity in athymic mouse xenografted with human LOX cells assessed as body weight loss at 0.1 mg/kg, iv qd administered 5 days a week for 2 weeks; format: organism-based; parameters: dose 0.1 mg/kg, route intravenous; conditions: in vivo
[8] = tested on: Mus musculus; test: Toxicity in athymic mouse xenografted with human LOX cells assessed as reduction in water uptake at 0.1 mg/kg, iv qd administered 5 days a week for 2 weeks; format: organism-based; parameters: dose 0.1 mg/kg, route intravenous; conditions: in vivo
[9] = tested on: DLD-1; test: Antiproliferative activity against human DLD1 cells assessed as growth inhibition; format: functional, cell-based
[10] = Antiproliferative activity against human MES-SA cells assessed as growth inhibition; format: functional, cell-based

SMILES | Activity [1] | Ratio IC50 [2] | Activity [3] | IC50 [4] | IC50 [5] | Activity [6] | Activity [7] | Activity [8] | IC50 [9] | IC50 [10]
C=C1C[C@@H]2CC[C@@]34C[C@H]5O[C@H]6[C@@H](O3)[C@H]3O[C@H](CC[C@@H]3O[C@H]6[C@H]5O4)CC(=O)C[C@@H]3[C@@H](OC)[C@@H](C[C@H](O)COC)O[C@H]3C[C@H]3O[C@@H](CC[C@@H]1O2)C[C@@H](C)C3=C | Non-toxic | 17.09 | Active | 0.2 nM | 2.82 nM | inactive | Non-toxic | Non-toxic | 0.27 nM | 0.17 nM
C=C1C[C@@H]2CC[C@@]34C[C@H]5O[C@H]6[C@@H](O3)[C@H]3O[C@H](CC[C@@H]3O[C@H]6[C@H]5O4)CC(=O)C[C@@H]3[C@@H](OC)[C@@H](C[C@@H](COC)OC)O[C@H]3C[C@H]3O[C@@H](CC[C@@H]1O2)C[C@@H](C)C3=C | Non-toxic | 7.76 | Active | 0.21 nM | 1.86 nM | inactive | Non-toxic | Non-toxic | 0.36 nM | 0.24 nM
C=C1C[C@@H]2CC[C@@]34C[C@H]5O[C@H]6[C@@H](O3)[C@H]3O[C@H](CC[C@@H]3O[C@H]6[C@H]5O4)CC(=O)C[C@@H]3[C@@H](OC)[C@@H](C[C@H](O)CN)O[C@H]3C[C@H]3O[C@@H](CC[C@@H]1O2)C[C@@H](C)C3=C [ERIBULIN] | Non-toxic | 1842 | Active | 204 nM | 3060 nM |  |  |  | 20 nM | 1.66 nM
C=C1C[C@@H]2CC[C@@]34C[C@H]5O[C@H]6[C@@H](O3)[C@H]3O[C@H](CC[C@@H]3O[C@H]6[C@H]5O4)CC(=O)C[C@@H]3[C@@H](OC)[C@@H](CCC#N)O[C@H]3C[C@H]3O[C@@H](CC[C@@H]1O2)C[C@@H](C)C3=C | Non-toxic | 3.88 |  | 0.68 nM | 2.91 nM |  |  |  | 1.43 nM | 0.75 nM
C=C1C[C@@H]2CC[C@@]34C[C@H]5O[C@H]6[C@@H](O3)[C@H]3O[C@H](CC[C@@H]3O[C@H]6[C@H]5O4)CC(=O)C[C@@H]3[C@@H](OC)[C@@H](C[C@@H](CN=[N+]=[N-])OCc4ccccc4)O[C@H]3C[C@H]3O[C@@H](CC[C@@H]1O2)C[C@@H](C)C3=C | Non-toxic | 7.6 |  | 7.08 nM | 36.7 nM |  |  |  | 10.6 nM | 4.83 nM
C#CC[C@H]1O[C@H]2C[C@H]3O[C@@H](CC[C@@H]4O[C@@H](CC[C@@]56C[C@H]7O[C@H]8[C@@H](O5)[C@H]5O[C@H](CC[C@@H]5O[C@H]8[C@H]7O6)CC(=O)C[C@@H]2[C@H]1OC)CC4=C)C[C@@H](C)C3=C | Non-toxic | 2.75 |  | 0.83 nM | 2.01 nM |  |  |  | 1.46 nM | 0.73 nM
